Data: publication PMC9218960 (ACS infectious diseases, 2020)
Numbering of substitutions follows the chain as printed.

Key:
WT PfENT1 = target: T1, WT PfENT1 (Plasmodium falciparum, UniProt Q8IDM6); experiment: [3H]uridine uptake inhibition by purines in PfENT1-expressing yeast; format: cell-based
T1 sequence (Q8IDM6 1-422): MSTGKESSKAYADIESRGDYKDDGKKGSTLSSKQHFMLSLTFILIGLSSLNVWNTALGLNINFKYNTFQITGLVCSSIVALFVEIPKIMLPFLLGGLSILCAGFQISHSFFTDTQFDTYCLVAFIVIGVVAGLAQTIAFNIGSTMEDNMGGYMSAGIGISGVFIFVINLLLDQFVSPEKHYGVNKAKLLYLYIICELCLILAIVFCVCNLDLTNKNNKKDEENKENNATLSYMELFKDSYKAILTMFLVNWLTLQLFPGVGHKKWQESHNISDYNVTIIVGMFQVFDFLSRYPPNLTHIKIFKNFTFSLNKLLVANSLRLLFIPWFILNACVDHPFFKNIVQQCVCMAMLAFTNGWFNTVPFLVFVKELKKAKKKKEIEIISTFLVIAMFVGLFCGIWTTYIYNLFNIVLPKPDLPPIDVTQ

PfENT1 F36S = target: T2, PfENT1 F36S (Plasmodium falciparum, UniProt Q8IDM6, F36S); experiment: [3H]uridine uptake inhibition by purines in PfENT1-SNP-expressing yeast; format: cell-based
T2 sequence (Q8IDM6 1-422 F36S): T1 sequence (Q8IDM6 1-422) with F36S

| Compound | IC50 (WT PfENT1) | IC50 (PfENT1 F36S) |
| --- | --- | --- |
| OC[C@H]1O[C@@H](n2cnc3c(O)ncnc32)[C@H](O)[C@@H]1O [Inosine, inosine] | 20 ± 7 µM | 24 ± 7 µM |
| Nc1ncnc2nc[nH]c12 [Adenine, adenine] | 475 ± 124 µM | 292 ± 21 µM |
| O=c1[nH]cnc2nc[nH]c12 [Hypoxanthine, hypoxanthine] | 178 ± 44 µM | 171 ± 25 µM |
